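Method: 48-hour compound exposure of cells in 96-well plates, five concentrations, linear interpolation of endpoints. The concentration for 50% growth inhibition is given as GI50.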 Calls of active or inactive are those of the source. Rule as the data show it: active = GI50 up to about 1.1 µM and inactive = higher.

Holding throughout (experiment): growth of human tumour cells (NCI), 48 h
In assay [1] the test system is UACC-257.
The subject of assay [2] is SW-620.
Assay [3] concerns NCI-H23.
In assay [4] the test system is HCT-15.
The subject of assay [5] is MDA-MB-435.
For assay [6], the system named is IGROV-1.
The test system of assay [7] is NCI-H522.
Assay [8] concerns UO-31.
In assay [9] the test system is EKVX.
In assay [10] the test system is U-251.
In assay [11] the test system is NCI-H226.
The test system of assay [12] is BT-549.
Assay [13] concerns HL-60.
Assay [14] has as its system DU-145.
Assay [15] relates to KM12.
The subject of assay [16] is T47D.
Assay [17] deals with K562.
Assay [18] concerns HOP-62.
In assay [19] the test system is RXF 393.
The test system of assay [20] is HOP-92.

On to `OC1CCC(COC(c2ccccc2)(c2ccccc2)c2ccccc2)O1` (stereo not drawn), for which the GI50 is 16.8 µM (inactive) in [1]; 17.5 µM (inactive) in assay [2]; 18 µM (inactive) in [3]; 16.9 µM in assay [4]; 21.5 µM (inactive) in assay [5]; 18.2 µM (inactive) in assay [6]. Besides, the GI50 in assay [7] is 17.7 µM (inactive); in assay [8], 17.3 µM (inactive); in assay [9], > 10 µM (inactive); in assay [10], 18.8 µM (inactive); in assay [11], 24.2 µM (inactive); in assay [12], 23.8 µM (inactive). Also, the GI50 in [13] was 18.2 µM (inactive); in assay [14] it was 20.8 µM (inactive); in assay [15], 17.7 µM (inactive); in assay [16] it was 20.2 µM (inactive); in [17] it was 14.8 µM (inactive); in assay [18], 19.6 µM (inactive).
Consider `COc1ccc(O[C@H](CO)C[C@@H]2COC(C)(C)O2)cc1`, for which the GI50 in [1] is > 100 µM (inactive); in assay [2], > 100 µM (inactive); in assay [3], > 100 µM (inactive); in assay [19], > 100 µM (inactive); in [4] it was over 100 µM; in [5] it was > 100 µM (inactive). Moreover, the GI50 in [6], in [7], in [8], in assay [9], in [10] and in assay [11] was > 100 µM (inactive) throughout. For the same molecule, the GI50 in assay [12], in assay [14], in assay [15], in [17] and in assay [18] was > 100 µM (inactive) each time.
Regarding `N[C@@H](CCC(=O)NC(Cc1ccccc1)C(=O)NCP(=O)(O)O)C(=O)O` (stereo partly drawn), the GI50 in assay [1] was > 100 µM (inactive); in [2], > 100 µM (inactive); in assay [3] it was > 100 µM (inactive); in [4] it was over 100 µM; in [5], > 100 µM (inactive); in assay [6], > 100 µM (inactive). Also, the GI50 in assay [7] is > 100 µM (inactive); in assay [8], > 100 µM (inactive); in assay [9], > 100 µM (inactive); in assay [10], > 100 µM (inactive); in [12] it was 61.8 µM (inactive); in [13], > 100 µM (inactive). Besides, the GI50 in assay [15], in assay [16], in assay [17] and in [18] was > 100 µM (inactive) in each case.
With `Cn1c(=O)n2c(=O)n(C)c(=O)n2c1=O`, the GI50 in assay [1] is > 100 µM (inactive); in assay [2] it was > 100 µM (inactive); in assay [3], > 100 µM (inactive); in assay [19], > 100 µM (inactive); in [4], over 100 µM; in assay [5] it was > 100 µM (inactive). In addition, the GI50 in assay [6], in [7], in assay [8], in assay [9], in [10] and in [11] was > 100 µM (inactive) in each case. The GI50 in assay [12], in assay [13], in [14], in assay [15], in [16] and in assay [17] was > 100 µM (inactive) each time.
Take `CC1CC(OP(=O)(OCc2ccccc2)OCc2ccccc2)[C@@H](OCc2ccccc2)C(OCc2ccccc2)C1OCc1ccccc1` (stereo partly drawn): the GI50 is 76.6 µM (inactive) in [1]; > 100 µM (inactive) in [2]; 25.3 µM (inactive) in assay [3]; 0.0555 µM (active) in assay [19]; over 100 µM in [4]; 64.7 µM (inactive) in [6]. Besides, the GI50 was 81.8 µM (inactive) in [7]; 15.5 µM (inactive) in assay [8]; 34.1 µM (inactive) in [9]; 20.1 µM (inactive) in [10]; > 100 µM (inactive) in assay [11]; 79.3 µM (inactive) in [12]. Moreover, the GI50 in assay [13] is 28.5 µM (inactive); in [14] it was > 100 µM (inactive); in assay [16] it was 41.8 µM (inactive); in assay [17], 76.9 µM (inactive); in assay [18], > 100 µM (inactive).
As to `c1ccc(C[P+]2(c3ccccc3)c3ccccc3-c3ccccc32)cc1`, the GI50 in [1] is > 100 µM (inactive); in [2], > 100 µM (inactive); in [20], > 100 µM (inactive); in [3] it was > 100 µM (inactive); in assay [19] it was > 100 µM (inactive); in assay [4], over 100 µM. The GI50 in [5], in [6], in [7], in assay [8], in assay [9] and in assay [11] was > 100 µM (inactive) throughout. The GI50 in assay [12], in assay [13], in assay [14], in assay [15], in assay [17] and in [18] was > 100 µM (inactive) throughout.
For `COc1ccc(CC/N=C2\OCc3ccccc32)cc1OC`, the GI50 in assay [1] was > 100 µM (inactive); in assay [2], 54.5 µM (inactive); in [20] it was 31.2 µM (inactive); in assay [3], 32.7 µM (inactive); in assay [4], 38.8 µM; in [5], 43.2 µM (inactive). In addition, the GI50 in assay [6] is 67 µM (inactive); in assay [8], 69 µM (inactive); in assay [9], 76.2 µM (inactive); in [10], > 100 µM (inactive); in assay [11], 51.3 µM (inactive); in assay [12], > 100 µM (inactive). Besides, the GI50 in assay [13] is 5.42 µM (inactive); in [14], 32.4 µM (inactive); in assay [15] it was 31.5 µM (inactive); in assay [16], 27.5 µM (inactive); in [17] it was 23.4 µM (inactive).
As to `OCC(O)C(Cl)CCl` (stereo not drawn), the GI50 in assay [1] is > 100 µM (inactive); in assay [2] it was > 100 µM (inactive); in [3], > 100 µM (inactive); in [4], over 100 µM; in [6], > 100 µM (inactive); in assay [7] it was > 100 µM (inactive). Moreover, the GI50 in assay [8], in [9], in assay [10], in assay [11], in assay [12] and in assay [13] was > 100 µM (inactive) throughout. The GI50 in assay [14], in assay [15], in assay [16], in assay [17] and in [18] was > 100 µM (inactive) throughout.
Regarding `C/C=C\C(CC(=O)OC)CC(=O)N(CCC1CN(S(=O)(=O)C(F)(F)F)c2ccccc21)Cc1ccc(OC)cc1OC` (stereo not drawn), the GI50 in [1] is > 100 µM (inactive); in assay [2], > 100 µM (inactive); in assay [20], > 100 µM (inactive); in assay [3], > 100 µM (inactive); in [19], > 100 µM (inactive); in assay [4], over 100 µM. Also, the GI50 in [5] is 35.7 µM (inactive); in assay [6], > 100 µM (inactive); in [7] it was 57.3 µM (inactive); in assay [8], > 100 µM (inactive); in assay [9] it was > 100 µM (inactive); in assay [10], > 100 µM (inactive). In addition, the GI50 in [11] is > 100 µM (inactive); in assay [12], > 100 µM (inactive); in assay [15], 45.1 µM (inactive); in [16], > 100 µM (inactive); in assay [17] it was 96.6 µM (inactive); in assay [18] it was > 100 µM (inactive).
Turning to `COc1ccc(-c2c(C#N)c(-c3ccccc3)n(NS(=O)(=O)c3ccccc3)c(=O)c2C#N)cc1`, the GI50 in [1] is > 100 µM (inactive); in assay [2], > 100 µM (inactive); in assay [20] it was 26.2 µM (inactive); in assay [19], 76.4 µM (inactive); in [4] it was over 100 µM; in [5], > 100 µM (inactive). For the same molecule, the GI50 in assay [6] is 36.3 µM (inactive); in assay [7], 20.5 µM (inactive); in [9], > 100 µM (inactive); in [10], 71.8 µM (inactive); in assay [11], > 100 µM (inactive); in [12], > 100 µM (inactive). Further, the GI50 in [13] is 60.3 µM (inactive); in [15], > 100 µM (inactive); in assay [17], 65.9 µM (inactive); in assay [18], 95.1 µM (inactive).
As for `C[C@@H](NC(=O)Nc1cccc(C(=O)Nc2cc(C(C)(C)C)ccc2C(=O)O)n1)c1ccccc1`, the GI50 was 39 µM (inactive) in [2]; 41.7 µM (inactive) in assay [3]; 21.5 µM (inactive) in [19]; 44.2 µM in assay [4]; 37.3 µM (inactive) in assay [5]; 37.9 µM (inactive) in assay [6]. In addition, the GI50 in assay [7] is 40.8 µM (inactive); in assay [8] it was 40.1 µM (inactive); in assay [9] it was 52.5 µM (inactive); in [10] it was 16.1 µM (inactive); in assay [11], 38.3 µM (inactive); in assay [12] it was 37 µM (inactive). In addition, the GI50 in assay [13] was 45.3 µM (inactive); in assay [14], 40.2 µM (inactive); in assay [15] it was 55.1 µM (inactive); in assay [16] it was 46 µM (inactive); in assay [17], 42.5 µM (inactive); in [18], 28.4 µM (inactive).
`C=CCc1c(O)c2ccccc2[nH]c1=O`: the GI50 in assay [1] was > 100 µM (inactive); in assay [2] it was > 100 µM (inactive); in assay [20] it was > 100 µM (inactive); in [3], > 100 µM (inactive); in assay [4] it was over 100 µM; in assay [5], > 100 µM (inactive). The GI50 in [6], in assay [7], in assay [8], in assay [9], in assay [10] and in assay [11] was > 100 µM (inactive) in each case. The GI50 in [12], in assay [13], in assay [14], in [15], in assay [17] and in assay [18] was > 100 µM (inactive) throughout.

Source of the values: ChEMBL document CHEMBL1201862, “PubChem BioAssay data set” (2004).
